According to US11292781B2, “Pyrimidine tricyclic enone derivatives for inhibition of ROR-gamma and other uses” (REATA PHARMACEUTICALS, INC., priority 2016, dated 2022):
One block for each compound: values may come before it.

What was measured:
[1] = tested on: Human RAR-related Orphan Receptor Gamma (RORγ); assay: RORγ assay (GAL4-RORγ hybrid luciferase reporter, Indigo Biosciences); assay type: cell-based; settings: GAL4-RORγ reporter cells, 23 hours
From the text: B. RORγ Assay and Cell Viability
The RORγ assay system was purchased from Indigo Biosciences. This nuclear receptor assay utilizes a human cell line that has been engineered to express a hybrid form of the Human RAR-related Orphan Receptor Gamma (RORγ) at high levels. The N-terminal DNA binding domain (DBD) of the native RORγ receptor was substituted with the yeast GAL4-DBD to generate the GAL4-RORγ hybrid nuclear receptor. The reporter cell line is transfected with a plasmid that encodes the beetle luciferase gene under the control of the GAL4 upstream activating sequence (UAS). GAL4 binds to the UAS and increases transcription of downstream target genes. […] To assess the RORγ inverse-agonist activity of the test compounds, reporter cells were plated in white 96-well plates in triplicate and were treated with DMSO (vehicle) or test compound (concentration ranges of 0.4-200 nM or 2-1000 nM) at 37° C. with 5% CO2 in a humidified atmosphere for 23 hours. After this incubation, luciferin was added to the wells and luciferase activity was determined by measuring the luminescence signal using a BMG Pherastar microplate reader. Viability was determined using the Live Cell Multiplex Assay (Indigo Biosciences). Values from test compound samples were normalized to those from DMSO-treated samples. Data were analyzed using GraphPad Prism version 6.00 for Windows (GraphPad Software, La Jolla Calif. USA). A non-linear regression analysis with log (inhibitor) vs. normalized response using a variable slope was applied to fit the data and determine the IC50 values for inhibition of RORγ and cell viability.

[2] = tested on: Nrf2 transcription factor (GST ARE luciferase reporter in AREc32 cells); assay: AREc32 luciferase reporter assay; assay type: cell-based, human; settings: EC2×: concentration required to increase GST ARE luciferase reporter activity by 2-fold, 19 hours
Outline: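 AREc32 cells (MCF-7 carrying luciferase under eight rat GSTA2 ARE copies) treated with compound; luciferase measured by ONE-Glo luminescence. Signal normalised to DMSO wells as fold-induction, fitted by variable-slope log(agonist)-response regression, with EC2× interpolated from the curve.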

[3] = tested on: IL-17A levels in primary human CD4+ T cells differentiated into Th17 cells; assay: IL-17 release from differentiated primary human T-cells (IL-17A HTRF); assay type: cell-based; settings: primary human CD4+ T cells, Th17 differentiation, 46-hour incubation; read-out: hIL17 IC50
Outline: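 Cryopreserved primary human CD4+ T cells were activated with CD3/CD28 beads (1:2.5) and driven to Th17 with TGF-β 5, IL-6 20, IL-23 20, IL-10 10 ng/mL in ≤0.1% DMSO for 46 h at 37° C, in triplicate. Supernatant IL-17A was measured by HTRF and viability by CyQuant normalized to DMSO. IC50s came from variable-slope nonlinear regression.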

SMILES: COc1nc(CCNC=O)nc2c1CC[C@@H]1[C@@H](C)C(=O)C(C#N)=C[C@@]21C [T11]
IC50 [1]: > 2000 nM
HRF2 ARE 2× [2]: 2438 nM

SMILES: C[C@H]1C(=O)C(C#N)=C[C@@]2(C)c3nc(-c4ccncc4)nc(O)c3CC[C@H]12 [T17]
IC50 [1]: > 2000 nM
HRF2 ARE 2× [2]: 839 nM

SMILES: C[C@H]1C(=O)C(C#N)=C[C@@]2(C)c3nc(-c4ccnc5ccccc45)nc(NS(C)(=O)=O)c3CC[C@H]12 [T98]
IC50 [1]: > 2000 nM
IC50 [3]: > 1000 nM
HRF2 ARE 2× [2]: >2000 nM

SMILES: Cc1cc(-c2nc(-c3ccc(F)cc3)c3c(n2)[C@]2(C)CC(C(N)=O)C(=O)[C@H](C)[C@H]2CC3)ccn1 (stereo partly shown) [T185]
IC50 [1]: > 2000 nM
HRF2 ARE 2× [2]: >2000 nM

More lines, main results first:

IC50 [1]: > 2000 nM
SMILES: C[C@H]1C(=O)C(C#N)=C[C@@]2(C)c3nc(-c4ccnc(CCC(=O)O)c4)nc(-c4ccccc4F)c3CC[C@H]12 [T150]
HRF2 ARE 2× [2]: >2000 nM

IC50 [3]: 195 nM
SMILES: C[C@H]1C(=O)C(C#N)C[C@@]2(C)c3nc(-c4ccnc5ccccc45)nc(-c4ccccc4F)c3CC[C@H]12 (stereo partly shown) [T186]
HRF2 ARE 2× [2]: >2000 nM
